Source: paper PMC11637875, “Discovery of novel PARP1/NRP1 dual-targeting inhibitors with strong antitumor potency” (Frontiers in Pharmacology, 2024)
pIC50, pKd: −log10 of the molar value.

Legend:
[1] = molecular target: JAK3 (Homo sapiens, UniProt P52333); assay: Selectivity profile (123 kinase panel); format: biochemical
[2] = molecular target: FGFR1 (Homo sapiens, UniProt P11362); assay: Selectivity profile (123 kinase panel); format: biochemical
[3] = molecular target: FLT4 (Homo sapiens, UniProt P35916); assay: Selectivity profile (123 kinase panel); format: biochemical
[4] = molecular target: BTK (Homo sapiens, UniProt Q06187); assay: Selectivity profile (123 kinase panel); format: biochemical
[5] = molecular target: DYRK1B (Homo sapiens, UniProt Q9Y463); assay: Selectivity profile (123 kinase panel); format: biochemical
[6] = molecular target: MST1 (Homo sapiens, UniProt Q13043); assay: Selectivity profile (123 kinase panel); format: biochemical
[7] = molecular target: PARP2 (Homo sapiens, UniProt Q9UGN5); assay: Specificity testing by MST assay; format: binding
Method: (§1) All samples were diluted in 1 × PBST. […] Affinity Analysis software.

[8] = molecular target: PARP3 (Homo sapiens, UniProt Q9Y6F1); assay: Specificity testing by MST assay; format: binding
PARP3, sequence (Q9Y6F1 whole entry): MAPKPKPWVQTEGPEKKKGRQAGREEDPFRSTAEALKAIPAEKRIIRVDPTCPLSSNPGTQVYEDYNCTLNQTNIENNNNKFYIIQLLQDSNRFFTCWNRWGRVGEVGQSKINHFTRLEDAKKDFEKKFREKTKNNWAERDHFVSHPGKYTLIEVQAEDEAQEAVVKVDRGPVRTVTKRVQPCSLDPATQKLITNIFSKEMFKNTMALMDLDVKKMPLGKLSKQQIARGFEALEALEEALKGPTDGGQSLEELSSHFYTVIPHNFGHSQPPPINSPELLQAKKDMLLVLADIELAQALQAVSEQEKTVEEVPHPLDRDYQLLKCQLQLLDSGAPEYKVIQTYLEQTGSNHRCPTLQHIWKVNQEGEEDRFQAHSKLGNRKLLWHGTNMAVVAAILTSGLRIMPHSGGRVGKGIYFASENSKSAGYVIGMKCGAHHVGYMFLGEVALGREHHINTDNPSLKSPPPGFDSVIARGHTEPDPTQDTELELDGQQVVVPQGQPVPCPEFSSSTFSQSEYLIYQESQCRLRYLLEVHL
Method: as §1

[9] = molecular target: PARP10 (Homo sapiens, UniProt Q53GL7); assay: Specificity testing by MST assay; format: binding
Method: as §1

[10] = molecular target: NRP2 (Homo sapiens, UniProt O60462); assay: Specificity testing by MST assay; format: binding
Method: as §1

[11] = molecular target: RAD51 (Homo sapiens, UniProt Q06609); assay: Specificity testing by MST assay; format: binding
Method: as §1

[12] = molecular target: ATR (Homo sapiens, UniProt Q13535); assay: Specificity testing by MST assay; format: binding
Method: as §1

[13] = molecular target: PARP13 (Homo sapiens, UniProt Q7Z2W4); assay: Specificity testing by MST assay; format: binding
Method: as §1

[14] = molecular target: CHEK2 (Homo sapiens, UniProt O96017); assay: Specificity testing by MST assay; format: binding
Method: as §1

[15] = molecular target: PARP9 (Homo sapiens, UniProt Q8IXQ6); assay: Specificity testing by MST assay; format: binding
Method: as §1

[16] = molecular target: T1, PARP14 (Homo sapiens, UniProt Q460N5); assay: Specificity testing by MST assay; format: binding
T1 sequence (Q460N5 whole entry): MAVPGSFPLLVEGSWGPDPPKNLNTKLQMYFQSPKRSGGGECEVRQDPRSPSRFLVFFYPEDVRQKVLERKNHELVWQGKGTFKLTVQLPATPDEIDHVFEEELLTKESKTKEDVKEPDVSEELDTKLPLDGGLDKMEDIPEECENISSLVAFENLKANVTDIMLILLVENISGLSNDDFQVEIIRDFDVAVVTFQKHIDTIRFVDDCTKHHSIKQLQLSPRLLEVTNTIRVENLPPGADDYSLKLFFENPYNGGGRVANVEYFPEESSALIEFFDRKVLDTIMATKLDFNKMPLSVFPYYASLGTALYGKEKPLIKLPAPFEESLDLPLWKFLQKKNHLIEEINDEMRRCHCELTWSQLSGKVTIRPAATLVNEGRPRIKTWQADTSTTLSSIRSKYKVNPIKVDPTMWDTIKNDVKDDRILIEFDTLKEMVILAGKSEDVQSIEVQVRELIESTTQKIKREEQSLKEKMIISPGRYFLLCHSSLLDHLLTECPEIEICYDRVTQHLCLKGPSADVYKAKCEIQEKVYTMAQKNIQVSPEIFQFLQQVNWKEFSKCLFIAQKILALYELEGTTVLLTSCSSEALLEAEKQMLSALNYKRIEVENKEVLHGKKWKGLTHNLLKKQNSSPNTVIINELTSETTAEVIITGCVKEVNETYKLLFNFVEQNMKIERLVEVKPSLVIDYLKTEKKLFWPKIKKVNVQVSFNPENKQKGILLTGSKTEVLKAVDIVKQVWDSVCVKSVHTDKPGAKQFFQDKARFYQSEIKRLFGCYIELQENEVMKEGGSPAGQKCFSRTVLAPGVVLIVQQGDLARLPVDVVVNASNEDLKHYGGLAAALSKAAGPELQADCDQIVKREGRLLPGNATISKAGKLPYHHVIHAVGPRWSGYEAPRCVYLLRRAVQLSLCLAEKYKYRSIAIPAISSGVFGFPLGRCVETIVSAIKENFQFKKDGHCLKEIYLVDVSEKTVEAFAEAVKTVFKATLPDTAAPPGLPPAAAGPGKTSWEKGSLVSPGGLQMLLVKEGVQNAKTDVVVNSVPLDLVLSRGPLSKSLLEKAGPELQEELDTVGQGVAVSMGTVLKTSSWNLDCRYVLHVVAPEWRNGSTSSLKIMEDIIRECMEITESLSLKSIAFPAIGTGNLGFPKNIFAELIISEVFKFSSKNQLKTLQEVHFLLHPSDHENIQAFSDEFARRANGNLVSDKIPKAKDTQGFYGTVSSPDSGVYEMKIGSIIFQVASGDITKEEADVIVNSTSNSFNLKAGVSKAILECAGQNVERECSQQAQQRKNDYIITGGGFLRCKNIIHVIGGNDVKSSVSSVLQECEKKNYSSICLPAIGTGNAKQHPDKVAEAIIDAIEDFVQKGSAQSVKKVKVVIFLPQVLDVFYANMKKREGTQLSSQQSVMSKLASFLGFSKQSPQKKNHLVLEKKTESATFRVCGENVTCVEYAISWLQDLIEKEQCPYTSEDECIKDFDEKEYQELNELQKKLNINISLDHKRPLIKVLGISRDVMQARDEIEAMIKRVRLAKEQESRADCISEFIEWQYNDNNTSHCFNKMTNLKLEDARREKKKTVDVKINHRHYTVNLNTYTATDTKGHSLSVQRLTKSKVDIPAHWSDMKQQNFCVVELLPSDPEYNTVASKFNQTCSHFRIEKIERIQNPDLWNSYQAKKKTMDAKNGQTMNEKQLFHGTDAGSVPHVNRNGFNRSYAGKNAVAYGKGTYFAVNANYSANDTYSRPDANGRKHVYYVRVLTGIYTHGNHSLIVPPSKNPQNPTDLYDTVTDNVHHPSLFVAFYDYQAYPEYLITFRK
Method: as §1

[17] = molecular target: PARP15 (Homo sapiens, UniProt Q460N3); assay: Specificity testing by MST assay; format: binding
Method: as §1

[18] = molecular target: PARP7 (Homo sapiens, UniProt Q7Z3E1); assay: Specificity testing by MST assay; format: binding
PARP7, sequence (Q7Z3E1 whole entry): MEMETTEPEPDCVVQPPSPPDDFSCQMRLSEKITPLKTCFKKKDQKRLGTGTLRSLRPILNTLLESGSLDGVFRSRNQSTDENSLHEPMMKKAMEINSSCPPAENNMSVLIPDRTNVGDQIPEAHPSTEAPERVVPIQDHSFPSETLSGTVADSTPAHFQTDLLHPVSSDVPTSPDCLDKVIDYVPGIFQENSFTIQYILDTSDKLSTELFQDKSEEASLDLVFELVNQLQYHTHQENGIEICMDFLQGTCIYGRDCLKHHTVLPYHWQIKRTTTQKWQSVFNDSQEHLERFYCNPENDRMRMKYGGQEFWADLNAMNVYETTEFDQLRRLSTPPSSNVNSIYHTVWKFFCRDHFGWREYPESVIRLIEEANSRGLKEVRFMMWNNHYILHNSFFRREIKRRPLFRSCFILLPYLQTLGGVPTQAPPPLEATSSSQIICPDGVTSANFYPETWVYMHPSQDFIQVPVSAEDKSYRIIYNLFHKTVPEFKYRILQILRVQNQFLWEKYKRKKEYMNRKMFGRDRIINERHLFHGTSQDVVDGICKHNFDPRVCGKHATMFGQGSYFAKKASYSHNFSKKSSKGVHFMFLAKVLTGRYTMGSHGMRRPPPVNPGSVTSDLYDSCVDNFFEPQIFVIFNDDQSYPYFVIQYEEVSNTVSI
Method: as §1

[19] = molecular target: PARP8 (Homo sapiens, UniProt Q8N3A8); assay: Specificity testing by MST assay; format: binding
Method: as §1

[20] = molecular target: PARP12 (Homo sapiens, UniProt Q9H0J9); assay: Specificity testing by MST assay; format: binding
Method: as §1

[21] = molecular target: HCK (Homo sapiens, UniProt P08631); assay: Selectivity profile (123 kinase panel); format: biochemical
[22] = molecular target: CK1γ2 (Homo sapiens, UniProt P78368); assay: Selectivity profile (123 kinase panel); format: biochemical
CK1γ2, sequence (P78368 whole entry): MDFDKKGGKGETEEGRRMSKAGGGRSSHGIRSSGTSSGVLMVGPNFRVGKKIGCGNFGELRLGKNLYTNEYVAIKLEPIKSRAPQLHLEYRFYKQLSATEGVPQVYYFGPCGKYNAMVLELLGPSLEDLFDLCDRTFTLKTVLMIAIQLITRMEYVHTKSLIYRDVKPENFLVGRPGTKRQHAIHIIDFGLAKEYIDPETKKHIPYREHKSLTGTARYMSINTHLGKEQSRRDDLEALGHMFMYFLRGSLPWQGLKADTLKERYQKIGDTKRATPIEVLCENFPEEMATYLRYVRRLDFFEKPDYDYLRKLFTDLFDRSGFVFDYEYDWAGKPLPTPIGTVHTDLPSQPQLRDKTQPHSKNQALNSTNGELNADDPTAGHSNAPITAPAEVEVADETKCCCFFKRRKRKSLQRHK

[23] = molecular target: ITK (Homo sapiens, UniProt Q08881); assay: Selectivity profile (123 kinase panel); format: biochemical
ITK, sequence (Q08881 whole entry): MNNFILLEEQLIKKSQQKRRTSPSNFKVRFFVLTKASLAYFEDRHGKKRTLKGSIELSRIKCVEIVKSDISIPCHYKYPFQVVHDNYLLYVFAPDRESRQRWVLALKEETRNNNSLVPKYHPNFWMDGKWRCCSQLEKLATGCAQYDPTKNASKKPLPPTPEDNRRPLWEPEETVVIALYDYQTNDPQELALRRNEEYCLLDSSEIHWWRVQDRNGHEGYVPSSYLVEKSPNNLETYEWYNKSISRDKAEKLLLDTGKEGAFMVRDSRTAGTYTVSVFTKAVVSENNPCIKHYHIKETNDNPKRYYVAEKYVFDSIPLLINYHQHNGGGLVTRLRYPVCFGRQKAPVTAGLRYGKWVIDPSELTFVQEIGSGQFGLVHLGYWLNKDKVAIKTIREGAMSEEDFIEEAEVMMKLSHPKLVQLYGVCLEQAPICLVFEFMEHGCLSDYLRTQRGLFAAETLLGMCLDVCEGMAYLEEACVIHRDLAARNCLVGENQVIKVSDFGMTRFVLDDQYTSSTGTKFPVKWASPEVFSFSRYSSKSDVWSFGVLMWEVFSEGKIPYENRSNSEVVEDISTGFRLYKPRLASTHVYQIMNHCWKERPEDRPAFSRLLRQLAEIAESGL

[24] = molecular target: EPHA3 (Homo sapiens, UniProt P29320); assay: Selectivity profile (123 kinase panel); format: biochemical
EPHA3, sequence (P29320 21-983, species assumed): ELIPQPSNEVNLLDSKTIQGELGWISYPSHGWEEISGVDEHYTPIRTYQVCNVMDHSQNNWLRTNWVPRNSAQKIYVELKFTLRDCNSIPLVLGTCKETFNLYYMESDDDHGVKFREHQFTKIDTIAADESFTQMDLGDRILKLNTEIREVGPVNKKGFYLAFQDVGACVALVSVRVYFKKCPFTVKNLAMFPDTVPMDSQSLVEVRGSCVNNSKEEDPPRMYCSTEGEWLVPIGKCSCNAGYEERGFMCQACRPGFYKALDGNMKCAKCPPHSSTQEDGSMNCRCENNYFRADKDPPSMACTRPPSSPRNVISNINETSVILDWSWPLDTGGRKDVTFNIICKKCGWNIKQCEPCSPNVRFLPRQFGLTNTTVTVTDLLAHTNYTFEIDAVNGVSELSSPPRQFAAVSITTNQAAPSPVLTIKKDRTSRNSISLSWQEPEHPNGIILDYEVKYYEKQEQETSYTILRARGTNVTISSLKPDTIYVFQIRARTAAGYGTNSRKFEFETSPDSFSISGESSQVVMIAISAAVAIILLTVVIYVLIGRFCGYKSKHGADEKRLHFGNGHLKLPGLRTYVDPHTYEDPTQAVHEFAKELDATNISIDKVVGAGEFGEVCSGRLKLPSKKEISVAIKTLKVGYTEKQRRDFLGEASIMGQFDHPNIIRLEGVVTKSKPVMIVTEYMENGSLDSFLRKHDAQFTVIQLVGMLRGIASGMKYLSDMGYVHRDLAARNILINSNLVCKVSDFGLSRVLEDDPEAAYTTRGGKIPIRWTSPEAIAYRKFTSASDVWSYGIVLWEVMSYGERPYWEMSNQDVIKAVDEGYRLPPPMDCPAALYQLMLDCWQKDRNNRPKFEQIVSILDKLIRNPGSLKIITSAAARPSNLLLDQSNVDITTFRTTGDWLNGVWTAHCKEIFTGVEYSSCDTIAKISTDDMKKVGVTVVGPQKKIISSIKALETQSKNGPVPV

[25] = molecular target: ABL1 (Homo sapiens, UniProt P00519); assay: Selectivity profile (123 kinase panel); format: biochemical
[26] = molecular target: ACK (Homo sapiens, UniProt Q07912); assay: Selectivity profile (123 kinase panel); format: biochemical
[27] = molecular target: EPHB3 (Homo sapiens, UniProt P54753); assay: Selectivity profile (123 kinase panel); format: biochemical
[28] = molecular target: MLK1 (Homo sapiens, UniProt P80192); assay: Selectivity profile (123 kinase panel); format: biochemical
[29] = molecular target: T1, PARP14; assay: Selectivity profile (other isoforms of PARP and NRP family); format: biochemical
[30] = molecular target: KIT (Homo sapiens, UniProt P10721); assay: Selectivity profile (123 kinase panel); format: biochemical
[31] = molecular target: CSF1R (Homo sapiens, UniProt P07333); assay: Selectivity profile (123 kinase panel); format: biochemical
[32] = tested on: MDA-MB-231 xenograft tumor; assay: In vivo antitumor assay; set-up: species or system BALB/c nude mice; conditions: for body weight (g) in mice, mean / tumor volume (mm^3), mean: 5 mg/kg intraperitoneally every 3 days, n = 6
Method: Twenty-four female BALB/c nude mice (body weight 16–20 g) at 4–6 weeks old were purchased from Changzhou Cavens Experimental Animal Limited Company (Changzhou, China). Mice were adaptively housed for 1 week in a specific pathogen-free (SPF) environment with a temperature of 25°C ± 2°C, a 12-hour light/dark cycle, and free access to food and water. MDA-MB-231 breast cancer cells (200 μL, 1×10^7 cells) were suspended in PBS to formulate cell suspension, and 0.1 mL of cells were injected into the axilla of the left forelimb of mice by subcutaneous injection. […] Equal concentrations of drug-free PBS buffer were used for the vehicle group. Each group was administered every 3 days and the body weight and tumor size of the mice were recorded. Mice were executed when the tumor volume approached 2000 mm^3. Tumor volumes of all mice were measured using vernier calipers. The mice were placed belly up and the longest diameter of the tumor was measured with the inner bayonet of a vernier caliper, and the shortest transverse diameter perpendicular to the diameter was measured with the inner bayonet of a vernier caliper and recorded. Tumor volume was estimated according to the following formula: (c × c × d)/2 (c, the smallest diameter; d, the largest diameter). All animal experiments were performed and approved by the Ethics Committee of China Pharmaceutical University.

[33] = molecular target: DYRK2 (Homo sapiens, UniProt Q92630); assay: Selectivity profile (123 kinase panel); format: biochemical
[34] = molecular target: GSK3β (Homo sapiens, UniProt P49841); assay: Selectivity profile (123 kinase panel); format: biochemical

SMILES: NC(N)=NCCC[C@H](NCN1CCN(C(=O)c2cc(Cc3n[nH]c(=O)c4ccccc34)ccc2F)CC1)C(=O)O [PPNR-4]
- pIC50 [1]: < 5.00
- pIC50 [2]: < 5.00
- pIC50 [3]: < 5.00
- pIC50 [4]: < 5.00
- pIC50 [5]: < 5.00
- pIC50 [6]: < 5.00
- pKd [7]: < 5.00
- pKd [8]: < 5.00
- pKd [9]: < 5.00
- pKd [10]: < 5.00
- pKd [11]: < 5.00
- pKd [12]: < 5.00
- pKd [13]: < 5.00
- pKd [14]: < 5.00
- pKd [15]: < 5.00
- pKd [16]: < 5.00
- pKd [17]: < 5.00
- pKd [18]: < 5.00
- pKd [19]: < 5.00
- pKd [20]: < 5.00
- pIC50 [21]: < 5.00
- pIC50 [22]: < 5.00
- pIC50 [23]: < 5.00
- pIC50 [24]: < 5.00
- pIC50 [25]: < 5.00
- pIC50 [26]: < 5.00
- pIC50 [27]: < 5.00
- pIC50 [28]: < 5.00
- pIC50 [29]: < 5.00
- pIC50 [30]: < 5.00
- pIC50 [31]: < 5.00
- inhibitory effect on tumor volume growth ([32]; 5 mg/kg, in comparison to the olaparib or EG00229-treated groups): more remarkable inhibitory effect on tumor volume growth
- body weight (g) in mice, mean ([32]; day 0): 18.41 g
- tumor volume (mm^3), mean ([32]; day 0): 99 mm^3
- body weight (g) in mice, mean ([32]; day 3): 18.62 g
- tumor volume (mm^3), mean ([32]; day 3): 155 mm^3
- body weight (g) in mice, mean ([32]; day 6): 18.85 g
- tumor volume (mm^3), mean ([32]; day 6): 196 mm^3
- body weight (g) in mice, mean ([32]; day 9): 19.07 g
- tumor volume (mm^3), mean ([32]; day 9): 253 mm^3
- body weight (g) in mice, mean ([32]; day 12): 19.33 g
- tumor volume (mm^3), mean ([32]; day 12): 226 mm^3
- pIC50 [33]: < 5.00
- pIC50 [34]: < 5.00
